The text below walks through data of patent US5798392A, “Sulfonyl fluorides for the treatment of Alzheimer's disease” (The Board of Regents of the University of Texas System, priority 1996, dated 1998).

For data set [1], the target named is T1, erythrocyte acetylcholinesterase (Homo sapiens, UniProt P22303). In words: Erythrocyte acetylcholinesterase substrate kinetics. It counts as biochemical.
The target in data set [2] is T1, erythrocyte acetylcholinesterase. In words: Erythrocyte acetylcholinesterase inhibition in blood after oral dosing of humans (Ellman assay). It counts as in vivo.
Data set [3] concerns the target plasma butyrylcholinesterase (Homo sapiens, UniProt P06276). In words: Plasma butyrylcholinesterase inhibition in blood after oral dosing (Experiment I). It counts as in vivo. To be noted: oral doses.
The subject of data set [4] is patients suffering from SDAT. In words: ADAS-COG cognitive performance, Experiment III double blind crossover. In kind it is in vivo, human.
The test system of data set [5] is patients suffering from SDAT. In words: Mini Mental State Exam, Experiment III double blind crossover. In kind it is in vivo, human. The following applies: p<0.01 one-tailed, paired t-test and Wilcoxon.
In data set [6] the test system is patients suffering from SDAT. In words: Clinical Interview Based Impression of Change (CIBIC), Experiment III. It counts as in vivo, human. The following applies: end of 16 week protocol; baseline 4.0; p<0.01 t-test one-tailed; spread SD.
In data set [7] the test system is patients suffering from SDAT. In words: Global Deterioration Scale, Experiment III. In kind it is in vivo, human.
Data set [8] concerns brain acetylcholinesterase. In words: Brain acetylcholinesterase inhibition in rodents and monkeys. Also on record: species or system rodent and monkey. The following applies: monkey, in vivo.
The subject of a further data set is rats and monkeys. In words: Pharmacological activity after intramuscular injection in oil vehicle. It counts as in vivo. The following applies: i.m., sterile oil vehicle.
Data set [9] has as its system acetylcholinesterase. In words: Reaction with acetylcholinesterase in brain membranes in vitro. The following applies: solubilized in brain membranes, after removal from aqueous environment. In kind it is biochemical.
In data set [10] the test system is acetylcholinesterase. The following applies: cited from earlier work.
The next data set concerns animal memory. The following applies: minimum of 50% inhibition; without toxicity; cited from earlier work.
Data set [11] deals with brain acetylcholinesterase. The following applies: rodent and monkey brain; accumulated, small doses over a long period of time; up to; cited from earlier work.
Data set [12] can be described thus: Chemical stability and solubility.
Data set [13] is described as follows: Concentration in peripheral blood. To be noted: in vivo.
Data set [14] is described as follows: Experiment III, safety in patients suffering from SDAT.
The nature of data set [15]: Experiment II, Phase I tolerability in 10 normal subjects.
Data set [16] can be described thus: Experiment I, side effects and clinical blood analyses in one normal volunteer. To be noted: 0.016-0.22 mg/kg oral.
For the next data set, the system named is SDAT patients. To be noted: cited from earlier work.
The nature of data set [17]: Prior tacrine treatment of two patients.
[18] abbreviates: acetyl-β-methylthiocholine substrate, pH 7.4, 25° C.

“Also recorded” adds a separate entry of the source.

T1 sequence (P22303 32-574): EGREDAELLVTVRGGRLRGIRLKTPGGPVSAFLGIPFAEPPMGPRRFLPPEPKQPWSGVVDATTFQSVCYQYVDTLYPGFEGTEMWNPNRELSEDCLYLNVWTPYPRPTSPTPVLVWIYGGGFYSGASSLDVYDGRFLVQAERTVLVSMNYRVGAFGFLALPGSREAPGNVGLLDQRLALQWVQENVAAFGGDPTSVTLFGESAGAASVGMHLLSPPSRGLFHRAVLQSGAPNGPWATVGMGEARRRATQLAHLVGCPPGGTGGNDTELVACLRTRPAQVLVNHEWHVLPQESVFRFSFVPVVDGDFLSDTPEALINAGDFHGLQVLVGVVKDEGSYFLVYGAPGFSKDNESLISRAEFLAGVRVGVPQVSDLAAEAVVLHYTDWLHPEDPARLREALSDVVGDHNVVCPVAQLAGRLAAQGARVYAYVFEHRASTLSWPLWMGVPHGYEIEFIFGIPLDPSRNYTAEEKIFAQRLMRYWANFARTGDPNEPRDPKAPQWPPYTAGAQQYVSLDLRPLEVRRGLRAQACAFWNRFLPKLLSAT
plasma butyrylcholinesterase, sequence (P06276 29-602): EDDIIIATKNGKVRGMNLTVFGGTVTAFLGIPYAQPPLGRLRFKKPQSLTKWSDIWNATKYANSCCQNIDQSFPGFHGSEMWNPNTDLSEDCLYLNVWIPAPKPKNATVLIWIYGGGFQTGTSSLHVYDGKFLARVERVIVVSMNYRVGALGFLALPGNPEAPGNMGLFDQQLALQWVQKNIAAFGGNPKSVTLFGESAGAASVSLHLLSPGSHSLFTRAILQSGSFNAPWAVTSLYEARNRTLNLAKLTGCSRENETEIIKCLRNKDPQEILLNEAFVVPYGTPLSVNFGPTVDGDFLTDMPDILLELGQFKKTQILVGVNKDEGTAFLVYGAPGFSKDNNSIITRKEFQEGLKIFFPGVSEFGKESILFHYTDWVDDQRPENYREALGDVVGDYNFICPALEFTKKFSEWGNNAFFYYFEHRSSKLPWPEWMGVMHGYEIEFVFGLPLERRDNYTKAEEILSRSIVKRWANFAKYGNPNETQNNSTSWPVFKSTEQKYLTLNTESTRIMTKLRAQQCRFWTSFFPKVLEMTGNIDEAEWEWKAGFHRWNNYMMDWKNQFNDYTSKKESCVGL

Consider `CC(=O)SC(C)C[N+](C)(C)C` (stereo not drawn) [acetyl-β-methylthiocholine], for which the “percent of Vmax produced by substrate concentration” value in [1] (1.0 mM substrate, approximately 10 times Km, without substrate inhibition) is reported as “about 91%”. In addition, in [1] (setting [18]), the “Acetylcholinesterase Vmax” value is 9.2552 (SEM=0.6386) ×10-6 moles/gram of erythrocytes/min and the “erythrocyte acetylcholinesterase Vmax” value is reported as 9.2552 (SEM=0.6386) ×10^-6 moles/gm/min.
Consider `CS(=O)(=O)F` [methanesulfonyl fluoride], for which the inhibition at 0.14 mg/kg in data set [2] (0.14 mg/kg oral three times per week, Experiment III, spread SEM in %) is 85.3%. The same molecule returned an inhibition at 0.18 mg/kg in data set [2] (0.18 mg/kg oral three times per week, Experiment III, spread SEM in %) of 89.5%. Moreover, the “estimated minimum therapeutic dose” value in data set [2] (18% inhibition of remaining active enzyme per dose, Experiment I) is recorded as 0.11 mg/kg. In addition, in data set [2] (18% inhibition of remaining enzyme, three times per week, Experiments I and II), the “refined estimation of the (minimum) therapeutic dose” value was 0.14 mg/kg. Further, in data set [2] (Experiment II, FIG. 6, least squares linear regression), the dose-response correlation r result is “+0.8956”. In [2] (Experiment II, FIG. 6, oral), the dose/response relationship entry is “orderly and consistent dose/response relationship”. In [2] (Experiment II, oral), the “dose required to produce 18% inhibition of acetylcholinesterase remaining active” value is reported as 0.143 mg/kg. Besides, in data set [2] (FIG. 4, Experiment I oral doses, versus plasma butyrylcholinesterase), the “selectivity for erythrocyte acetylcholinesterase” value is reported as “strongly selective for erythrocyte acetylcholinesterase”. Besides, the “recovery kinetics of erythrocyte acetylcholinesterase” value in data set [2] (FIG. 5, 80 days after treatment ceased) is “follows pseudo-first order kinetics; also recorded: strictly linear plot of LOG10 [%INH] against time”. In addition, the “half-life for recovery of erythrocyte acetylcholinesterase” value in data set [2] (FIG. 5, Experiment I, 80 days after last dose) is reported as 43 days. Further, the “activity by oral administration (erythrocyte acetylcholinesterase inhibition)” value in data set [2] (oral, Experiment I, FIG. 1) is reported as “active by oral administration”. Besides, the “dose-response of erythrocyte acetylcholinesterase inhibition” value in data set [2] (oral, Experiment I, FIG. 1, one observation at each dose) is “orderly dose-response curve”. Besides, the “inhibition of erythrocyte acetylcholinesterase” value in data set [2] (patients treated up to 8 weeks) was 85-90%. The “correlation coefficient r, LOG10 [% inhibition] against time” value in data set [2] (recovery of erythrocyte acetylcholinesterase, FIG. 5, least squares linear regression) is on record as -0.9254. Besides, the “inhibition of plasma butyrylcholinesterase” value in data set [3] is listed as “virtually no inhibition of plasma butyrylcholinesterase”. In addition, in data set [4] (6 point reduction from 30 errors), the “percent improvement on the ADAS-COG” value is on record as 20%. The “mean improvement on the ADAS-COG” value in data set [4] (Experiment III, mean of 30 errors at beginning) worked out at 6 points. For the same molecule, in [4] (FIG. 7, during methanesulfonyl fluoride treatment), the “cognitive performance (reduction in errors on the ADAS-COG)” value is recorded as “substantial improvement of cognitive performance”. In addition, the “duration of improvement after treatment” value in data set [4] (after/through 8 weeks of placebo treatment) is “still clearly present after 8 weeks of placebo treatment; also recorded: maintained through 8 weeks of placebo”. Further, the “efficacy compared with tacrine in enhancing cognitive functions in SDAT” value in [4] (in vivo) is on record as “significantly greater efficacy than tacrine”. The “improvement on ADAS-COG maintained throughout 8 additional weeks of placebo” value in data set [4] (methanesulfonyl fluoride first, then placebo) was “about 6 points”. In addition, in data set [4] (p<0.01 one-tailed, paired t-test and Wilcoxon), the “ADAS-COG change in 8 weeks compared to placebo” value was “significant improvement compared to the placebo”. In [4] (p<0.05, N=15), the “correlation of ADAS-COG improvement with baseline ADAS-COG errors” value was “+0.6”. Besides, in data set [5], the “Mini-Mental State score change in 8 weeks compared to placebo” value is on record as “significant improvement compared to the placebo”. Moreover, the “mean CIBIC” value in data set [6] is 2.98 (SD=1.13). In addition, the “mean improvement in Global Deterioration Score” value in data set [7] (16 weeks versus baseline, p<0.01 t-test one-tailed, spread SEM) was 1.3 (SEM=0.33). The “mean Global Deterioration Score at the end of the protocol” value in data set [7] (end of 16 week protocol, baseline 4.4 (SEM=0.21)) is 3.1. The “inhibition in brain versus peripheral tissues” value in data set [8] is on record as “much more inhibition in brain than peripheral tissues”. For the same molecule, the “pharmacological activity if injected intramuscularly” value in the data set with rats and monkeys was “pharmacologically active”. The “continued reaction against acetylcholinesterase” value in the data set on acetylcholinesterase [9] is listed as “continues to react against acetylcholinesterase even after it is removed from the aqueous environment of the membranes in vitro”. Also, in the data set on acetylcholinesterase [10], the “mechanism and duration of acetylcholinesterase inhibition” value is reported as “long-acting irreversible inhibitor of acetylcholinesterase”; the “selectivity for acetylcholinesterase in comparison to butyrylcholinesterase” value (from here on “selectivity for acetylcholinesterase”) is recorded as “high selectivity”. In addition, the “enhancement of animal memory” value in the data set on animal memory is on record as “strong methanesulfonyl fluoride-induced enhancement of animal memory without toxicity”. The “inhibition of brain acetylcholinesterase” value in [11] was 80-90%. In [12] (lipids), the solubility in lipids result is reported as “highly soluble in lipids”. The “chemical stability in water solutions” value in data set [12] (water solutions) is “would degrade in water solutions”. The “concentration in the peripheral blood” value in data set [13] is “drops within hours”. Moreover, the adverse events result in data set [14] (0.14 mg/kg, first 7 patients) is reported as “no adverse events”. In [14] (Experiment III), the “clinical blood profiles, especially transaminases” value is “no changes in clinical blood profiles”; the “nausea, vomiting, diarrhea, or other cholinergic side effects” value is reported as “no patients suffered”; the “signs of toxicity at the doses used” value was “no signs of methanesulfonyl fluoride toxicity”. Moreover, the “adverse events related to drug treatment” value in [14] (Experiment III, 0.14-0.18 mg/kg) was “no adverse events”. Besides, the “patients leaving the protocol because of a drug-related adverse event” value in data set [14] (Experiment III, 21 enrolled, 15 completed) is given as “No patients”. For the same molecule, the “peripheral cholinergic or other toxic effects” value in data set [14] (doses sufficient for treatment of dementia) is “not accompanied by peripheral cholinergic or other toxic effects”. Besides, in data set [14] (patients, up to 8 weeks, 85-90% inhibition of erythrocyte acetylcholinesterase), the hematocrit changes entry is on record as “no changes in hematocrit”. The “adverse events in patients with known tacrine sensitivity” value in data set [14] (two patients with prior tacrine adverse effects) is on record as “Neither of these patients with known sensitivities experienced adverse events”. The tolerability entry in data set [15] (0.03-0.18 mg/kg oral, Experiment II) is on record as “All doses used were tolerated well”. Moreover, in data set [15] (Experiments I and II), the “safety at range of doses expected to produce a therapeutic effect” value was “safe at the range of doses expected to produce a therapeutic effect”. The oral absorption result in data set [15] (oral, Experiment II) is listed as “consistently absorbed after oral administration”. Also, in data set [16], the “changes in the clinical blood analyses” value was “no changes of any type in the clinical blood analyses” and the “cholinergic effects (e.g., diarrhea, vomiting, nausea)” value is “no cholinergic effects”.
For `COP(=O)(OC)C(O)C(Cl)(Cl)Cl` (centres unmarked) [metrifonate, reference compound], in the data set with acetylcholinesterase [10], the “selectivity for acetylcholinesterase” value was “do not show this high degree of selectivity”.
`CNC(=O)Oc1ccc2c(c1)[C@]1(C)CCN(C)[C@@H]1N2C` [physostigmine, reference compound]: the “selectivity for acetylcholinesterase” value with acetylcholinesterase [10] is given as “do not show this high degree of selectivity”.
In the case of `Nc1c2c(nc3ccccc13)CCCC2` [tacrine], the “mean improvement on the ADAS-COG” value in the data set on SDAT patients (high dose tacrine, patients who could tolerate) is 2 points. Also, in the data set on SDAT patients (high dose tacrine), the “patients who could tolerate” value is given as 40% and the “patients who failed to complete the protocol because of drug-related adverse events” value is reported as “about 60%”. Moreover, in the data set with SDAT patients (in vivo), the “adverse events related to treatment” value is “cholinergic side effects (nausea, vomiting, diarrhea, etc.) and liver toxicity”. In addition, in data set [17] (one patient each), the prior adverse effects entry was “liver toxicity; also recorded: vomiting”. Also, in [17] (one patient, an ineffective dose), the “highest tolerated dose (limited by vomiting)” value came out at 60 mg/day.
